This is an account of results in patent publication US20250108036A1, “COMPOSITIONS FOR REMOVING SENESCENT CELLS AND USES THEREOF” (LIFECEUTIX CO., LTD., priority 2021, published 2025).

In experiment [1] the test system is umbilical cord-derived mesenchymal stem cells. As to the kind of experiment: death of senescent stem cells by LX-112. In kind it is cell-based, human. Particulars: LX-112 10 μM. On the procedure:
In addition to somatic cells, the death of senescent cells by LX-112 was confirmed to be about 50% in stem cells (umbilical cord-derived mesenchymal stem cells, purchased from ATCC) at a concentration of 10 μM. From this, it was confirmed that LX-112 can effectively remove senescent cells by inducing their death.

The subject of experiment [2] is SAOS-2. As to the kind of experiment: CellTiter-Glo cell viability of senescent SAOS-2 cancer cells (Example 2-2). In kind it is cell-based, human. The following applies: DOX → LX (LX-112 5 μM). As to the method:
The standard for treating various cancers, including osteosarcoma, is repeated chemotherapy. Accordingly, aging was induced in SAOS-2 in the same manner as in Example 2-1, and then (i) treated again with doxorubicin (DOX→DOX) or (ii) treated with the LX-112 (5 μM) composition (DOX→LX-112).

Experiment [3] deals with MMP3, IL1β, MMP12, IL6, MMP13. As to the kind of experiment: SASP mRNA qRT-PCR in organ tissues of naturally aged mice (Example 7-6). In kind it is in vivo, C57BL6J mice. The following applies: LX-112 70 mg/kg oral daily 21 days, aged untreated = 100%. As to the method: After 22-month-old female C57BL6J mice (purchased from KRIBB Laboratory Animal Resource Center) were adapted to the experimental environment for one week, the aged mice were randomized into an experimental group and a control group. 8-week-old mice that were not aged were used as controls. LX-112 was mixed with 0.5% CMC-Na solution (purchased from Sigma) and administered orally at a concentration of 70 mg/kg daily for 21 days. The control group was administered only the solution in the same volume. After drug administration was completed, the method described in each Example below was performed.
Using cDNA synthesized in the same manner as in Example 7-2, qRT-PCR was performed and analyzed for MMP3, IL1β, MMP12, IL6, and MMP13, which are aging-related inflammation and fibrosis secretory factors (SASP). […] Table 31 calculates the mRNA amount of each factor after senescence was induced as 100% and compared it with the mRNA amount of each factor after treatment with LX-112.

The subject of experiment [4] is IL6. As to the kind of experiment: serum IL6 ELISA in doxorubicin-aged mice (Example 8-5). The format is in vivo, C57BL6J mice. The following applies: doxorubicin-aged mice, LX-112 70 mg/kg oral daily 21 days. As to the method:
(§1) After adapting 8-week-old male C57BL6J mice (purchased from KRIBB Laboratory Animal Resource Center) to the experimental environment for 1 week, doxorubicin, an anticancer drug, was administered intraperitoneally at a concentration of 10 mg/kg, and mice that were induced to age for more than 10 days were assigned to an experimental group and a control group. LX-112 was mixed with 0.5% CMC-Na solution (purchased from Sigma) and administered orally at a concentration of 70 mg/kg daily for 21 days. The control group was administered only the solution in the same volume. After drug administration was completed, the method described in each Example below was performed.
The amount of IL6, an aging-related inflammation secretory factor (SASP), was measured in serum collected from mice in the same manner as in Example 7-5 using an enzyme-linked immunosorbent assay (ELISA Kit, purchased from R&D Systems).

The test system of experiment [5] is AST, ALT. As to the kind of experiment: serum AST and ALT in doxorubicin-aged mice (Example 8-8). The format is in vivo, C57BL6J mice. The following applies: doxorubicin-aged mice, LX-112 70 mg/kg oral daily 21 days, DOX without LX = 100%. On the procedure: as §1
In the same manner as in Example 7-5, the amounts of AST (aspartate aminotransferase) and ALT (alanine transaminase) released into the blood during liver damage were measured by spectrophotometry in the serum collected from mice using a kit (purchased from Sigma) according to the method described in the manual. […] Table 50 calculates the amount of each factor after aging was induced by treatment with the anticancer drug as 100% and compared it with the amount of each factor after treatment with LX-112.

The test system of experiment [6] is p16, p21. As to the kind of experiment: p16 and p21 mRNA qRT-PCR in obesity-aged (DIO) mice (Example 9-2). In kind it is in vivo, C57BL6J mice. The following applies: LX-112 70 mg/kg oral daily 21 days, DIO without LX = 100%. On the procedure: 15-week-old male C57BL6J mice (purchased from Jackson Laboratories), whose obesity was induced by a high-fat diet, were adapted to the experimental environment for one week, and then the mice were randomized into an experimental group and a control group. LX-112 was mixed with 0.5% CMC-Na solution (purchased from Sigma) and administered orally at a concentration of 70 mg/kg daily for 21 days. The control group was administered only the solution in the same volume. After drug administration was completed, the method described in each Example below was performed. Mice were sacrificed and the weight of adipose tissue in each area was measured.
Mice were sacrificed in the same manner as in Example 7-2, RNA was extracted from the organ tissue of each region, and qRT-PCR (quantitative real-time PCR) was performed and analyzed using the synthesized cDNA. […] Table 54 calculates the mRNA amounts of p16 and p21 after aging induced by obesity as 100% and compares them with the mRNA amounts of p16 and p21 after treatment with LX-112.

Experiment [7] deals with normally proliferating foreskin cells. As to the kind of experiment: survival of normally proliferating foreskin cells treated with medium supernatant (secreted fluid) of compound-killed cells (Example 13, Table 68). In kind it is cell-based, human. The following applies: after 3 days. As to the method:
After treating cells with the test compound at a high concentration that induces the death of most cells in both non-senescence-induced and senescence-induced cells, the cells were washed three times with PBS to remove the test compound, and replaced with fresh medium and cultured for an additional 3 hours at the time when the compound has entered into the cell but has not yet induced cell death (approximately 1 to 3 hours after compound treatment). During this additional culture, by checking with an optical microscope, etc., the medium supernatants containing secreted fluid from normally proliferating and senescent cells in which cell death was induced were obtained. The obtained medium supernatant was replaced with the medium of normally proliferating and senescent cells, respectively, and cell survival rate was measured after 3 days.

Experiment [8] deals with normally proliferating cancer (A549) cells. As to the kind of experiment: survival of normally proliferating A549 cancer cells treated with medium supernatant of compound-killed cancer cells (Example 14, Table 70). The format is cell-based, human. On the procedure:
In the same way as Examples 12 and 13, senescence of cancer (A549) cells was induced by treatment with doxorubicin or the control group (DMSO), and the cells were cultured. […] In the same manner as in Example 13, the medium supernatants comprising secreted fluid from normally proliferating and senescent cancer cells was obtained. Normally proliferating and senescent-induced cancer cells were treated with the medium supernatants.

Consider `O=c1c2ccccc2[se]n1CCn1[se]c2ccccc2c1=O` [LX-112, 1,2-[bis(1,2-benzisoselenazolone-3(2H)-ketone)]ethane], for which the “death of senescent cells” value in experiment [1] is “about 50%”. Moreover, the “Survival (%)” value in experiment [2] (3 d) is 35 (±4) %. Besides, the “Survival (%)” value in experiment [2] (7 d) is on record as 14 (±5) %. Also, in experiment [3], the “mRNA (%) Kidney IL1β” value is reported as 67 (±3.9) %, the “mRNA (%) Liver MMP3” value is listed as 75 (±13) %, the “mRNA (%) Lung MMP 12” value is reported as 81 (±13) % and the “mRNA (%) Muscle IL6” value was 65 (±21) %. Besides, in experiment [3], the “mRNA (%) Skin MMP3” value is recorded as 92 (±6) %, the “mRNA (%) Skin MMP12” value was 78 (±14) % and the “mRNA (%) Skin MMP13” value is listed as 95 (±2) %. The “IL6 (%)” value in experiment [4] is 69.8 (±12.2) %. Moreover, in experiment [5], the “ALT (%)” value is 72.2 (±14.1) % and the “AST (%)” value is listed as 78 (±17.3) %. In experiment [6], the “p16 mRNA (%) Liver” value came to 71.3%, the “p16 mRNA (%) Lung” value is 81%, the “p16 mRNA (%) Muscle” value turned out to be 77.8% and the “p16 mRNA (%) Skin” value is on record as 79.1%. Also, in experiment [6], the “p16 mRNA (%) asWAT” value came to 84.1%, the “p16 mRNA (%) eWAT” value stood at 61.2%, the “p16 mRNA (%) iBAT” value turned out to be 89.2% and the “p16 mRNA (%) iWAT” value is listed as 79.1%. Further, in experiment [6], the “p21 mRNA (%) Liver” value came out at 62.9%, the “p21 mRNA (%) Lung” value is 79.3%, the “p21 mRNA (%) Muscle” value was 73.2% and the “p21 mRNA (%) Skin” value amounted to 78.1%. Moreover, in experiment [6], the “p21 mRNA (%) asWAT” value is listed as 82.1%, the “p21 mRNA (%) eWAT” value is reported as 67.2%, the “p21 mRNA (%) iBAT” value stood at 70% and the “p21 mRNA (%) iWAT” value is reported as 71.2%.

Consider `COC(=O)c1ccc([C@H]2c3[nH]c4ccccc4c3C[C@H](C(=O)OC)N2C(=O)CCl)cc1` [LX-405], for which the “Survival (%)” value in experiment [7] (supernatant from compound-treated medium without cells (No Cells)) was 99.4 (±2.4) %; in experiment [7] (supernatant from death-induced proliferating foreskin cells (compound 30 μM)) it was 104 (±3) %; in experiment [7] (supernatant from death-induced senescent foreskin cells (compound 30 μM)) it was 100.2 (±5.6) %; in experiment [8] (supernatant from No Cells), 101.4 (±1.3) %; in experiment [8] (supernatant from death-induced proliferating cells (LX-405 30 μM)) it was 98.6 (±4.8) %; in experiment [8] (supernatant from death-induced senescent cells (LX-405 30 μM)) it was 105.2 (±4.9) %.
